Assay [1] concerns the target T1, full-length hepatitis C NS3 protease enzyme with NS4A cofactor (HCV NS3/4A protease complexes) (Hepatitis C virus genotype 1a, UniProt P27958).
T1 construct: full-length hepatitis C NS3 protease enzyme
In words: HCV NS3/4A protease inhibition assay (enzymatic). It is filed as biochemical. Particulars: full-length NS3 1 nM, 25 μM NS4A cofactor, 0.5 μM depsipeptide substrate, 30° C., competitive inhibition model. How it is done:
[Landro, 1997 #Biochem 36 9340-9348]. […] The solutions were stored at −20° C. between measurements.
The final concentration of DMSO in the assay sample is adjusted to 3.3%. The rate of hydrolysis is corrected for inner filter effects according to published procedures. [Liu, 1999 Analytical Biochemistry 267 331-335]. […] A minimum of two replicates are performed for all measurements.

Assay [2] concerns HCV replicons (NS3-NS5B regions of HCV type 1b) in Huh-7 luc/neo cells. Nature of the assay: HCV replicon assay (Huh-Luc cells, luciferase readout). The class given is cell-based. Particulars: Hepatitis C virus, Huh-7, 72 h, HCV type 1b replicon, three days incubation, luciferase activity. An excerpt: The compounds of formula (I) were examined for activity in the inhibition of HCV RNA replication in a cellular assay. […] The cellular assay was based on a bicistronic expression construct, as described by Lohmann et al. (1999) Science vol. 285 pp. 110-113 with modifications described by Krieger et al. (2001) Journal of Virology 75: 4614-4624, in a multi-target screening strategy. In essence, the method was as follows.
The assay utilized the stably transfected cell line Huh-7 luc/neo (hereafter referred to as Huh-Luc). This cell line harbors an RNA encoding a bicistronic expression construct comprising the wild type NS3-NS5B regions of HCV type 1b translated from an Internal Ribosome Entry Site (IRES) from encephalomyocarditis virus (EMCV), preceded by a reporter portion (FfL-luciferase), and a selectable marker portion (neo^R, neomycine phosphotransferase). […]
The replicon cells were plated in 384 well plates in the presence of the test and control compounds which were added in various concentrations. Following an incubation of three days, HCV replication was measured by assaying luciferase activity (using standard luciferase assay substrates and reagents and a Perkin Elmer ViewLux™ ultraHTS microplate imager). […] The inhibitory activity of the compound on luciferase activity was monitored on the Huh-Luc cells, enabling a dose-response curve for each test compound.
(In general: Replicon systems follow genome replication, usually without infectious particles.)

T1 sequence (P27958 1027-1657, one chain of several): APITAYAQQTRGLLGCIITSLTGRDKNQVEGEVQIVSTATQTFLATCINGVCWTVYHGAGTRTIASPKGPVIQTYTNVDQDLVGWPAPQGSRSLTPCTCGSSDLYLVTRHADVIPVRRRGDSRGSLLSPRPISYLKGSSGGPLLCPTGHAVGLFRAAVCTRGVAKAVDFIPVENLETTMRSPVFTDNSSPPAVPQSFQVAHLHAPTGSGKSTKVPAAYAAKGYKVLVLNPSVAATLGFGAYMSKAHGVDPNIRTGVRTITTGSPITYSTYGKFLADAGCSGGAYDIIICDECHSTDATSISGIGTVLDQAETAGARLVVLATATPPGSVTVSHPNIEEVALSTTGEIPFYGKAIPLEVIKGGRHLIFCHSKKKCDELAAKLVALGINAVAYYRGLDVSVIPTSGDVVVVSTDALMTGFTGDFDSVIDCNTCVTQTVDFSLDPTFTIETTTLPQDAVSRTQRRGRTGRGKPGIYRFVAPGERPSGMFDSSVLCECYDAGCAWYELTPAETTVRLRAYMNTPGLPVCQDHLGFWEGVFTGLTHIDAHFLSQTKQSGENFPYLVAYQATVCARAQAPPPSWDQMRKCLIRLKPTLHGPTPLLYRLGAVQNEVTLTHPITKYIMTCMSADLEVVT

Broadly, the Ki is a dissociation constant, usually derived from enzyme kinetics or from competition with a known ligand. A low value points to tighter binding. As usually defined, the EC50 is the midpoint of the concentration-response curve. Low readings indicate an effect from little substance, high ones a need for much substance. Turning to `COc1ccc2c(O[C@@H]3C[C@H]4C(=O)N[C@]5(C(=O)NS(=O)(=O)C6CC6)CC5/C=C\CCCCN(N(C)C)C(=O)[C@@H]4C3)cc(-c3ccccc3)nc2c1` (stereo partly shown) [Example 89, Cyclopropanesulphonic acid [13-dimethylamino-17-(7-methoxy-2-phenyl-quinolin-4-yloxy)-2,14-dioxo-3,13-diaza-tricyclo[13.3.0.0*4,6*]octadec-7-ene-4-carbonyl]-amide], the inhibitory constant (Ki) in assay [1] was 0.1 to 4.9 nM. In assay [2], this compound yielded an EC50 of 0.5 to 49 nM.
The matching figures for `COc1ccc2c(O[C@@H]3C[C@H]4C(=O)N[C@]5(C(=O)O)CC5/C=C\CCCCN(N(C)C)C(=O)[C@@H]4C3)cc(-c3ccccc3)nc2c1` (stereo partly shown) [Example 88, 13-Dimethylamino-17-(7-methoxy-2-phenyl-quinolin-4-yloxy-2,14-dioxo-3,13-diaza-tricyclo[13.3.0.0*4,6*]octadec-7-ene-4-carboxylic acid]: 100 to 2000 nM and 1000 to 10000 nM.

(Values after US7700552B2, “Macrocyclic inhibitors of hepatitis C virus” (Medivir AB, priority 2005, dated 2010).)
